Experimental data as given in US20250129067A1 (Progentos Therapeutics, Inc., priority 2021, published 2025).
Read-outs that look alike come from different tables or passages of the source.

Key:
PDGFRα = PDGFRα (Homo sapiens (Human), UniProt P16234); assay: PDGFRα kinase enzyme assay (Promega PDGFRα Kinase Enzyme System, ADP-Glo); format: biochemical; settings: 11-point dose response, 10,000 nM to 0.169 nM, 150 uM ATP, BLQ = below limit of quantitation
How it was run: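 Purified PDGFRα protein (20 ng) reacted with test compound per the Promega kinase system protocol. ADP formed was measured by ADP-Glo luminescence against a standard curve, giving IC50.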

[1] = tested on: Oligodendrocyte progenitor cells (OPCs)
Description: (§1) To assess the effects of the PDGFRα inhibitors on OPC differentiation, primary OPCs were cultured and exposed to compounds. The number of newly generated oligodendrocytes was assessed by monitoring GPR17 expression. GPR17 is preferentially expressed in actively differentiating oligodendrocytes, allowing them to be distinguished from precursors and more differentiated oligodendrocytes.
(§2) Cortices from postnatal day (P) 1-3 rats were dissected and collected into ice cold Hank's Balanced Salt Solution (HBSS). […] Briefly, the cortical cell suspension was centrifuged and washed with buffer (0.5% BSA in PBS) and labeled with Anti-A2B^5 MicroBeads (10 μL beads per 1×10^7 cells) for 15 minutes at 4° C. Following the incubation, cells were washed once with BSA buffer to remove unlabeled beads. A2B^5 positive cells were eluted on the column using the AutoMACS® (Miltenyi, as per manufacturer's protocol using “Possel-s” program). Eluted cells were further washed twice with OPC growth media. Cell counts were performed using Countess III cell counter (ThermoFisher; AMQAX2000) and cells were plated.
(§3) The plates were allowed to sit at room temperature for 15 minutes to ensure proper dispersion of cells in a well. The plates were then transferred to the incubator (37° C.; 5% CO2).
(§4) Cells were then incubated for 72 hours at 37° C., 5% CO2 before immunostaining for GPR17 marker expression.
(§5) Following 72 hours in culture, cells were fixed with 4% paraformaldehyde for 15 minutes and then washed three times in Dulbecco's phosphate buffered saline (DPBS). Prior to immunostaining, cells were treated with a blocking solution (10% normal goat serum containing 1% BSA and 0.1% Triton® X-100 in DPBS) for 15 minutes at room temperature. Primary antibody (anti-GPR17 at 1:2000; Origene TA811615) was applied to cells overnight at 4° C. in incubation solution containing 1% normal goat serum, 1% BSA, and 0.1% Triton X-100 in DPBS. […] The secondary antibody was applied in incubation solution for 2 hours at room temperature, protected from light.
(§6) The number of differentiated GPR17+ cells was normalized to the total nuclei count and percent differentiated GPR17+ cells were reported. Statistical analysis was done using one-way ANOVA with multiple comparisons and post-hoc Tukey test in GraphPad Prism (GraphPad Software).

[2] = tested on: Oligodendrocyte progenitor cells (OPCs); remark: listed apart in the source
Description: (§7) Cortices from postnatal day (P) 1-3 rats were dissected and collected into ice cold Hank's Balanced Salt Solution (HBSS). […] Briefly, the cortical cell suspension was centrifuged and washed with buffer (0.5% BSA in PBS) and labeled with Anti-A2B5 MicroBeads (10 μL beads per 1×10^7 cells) for 15 minutes at 4° C. Following the incubation, cells were washed once with BSA buffer to remove unlabeled beads. A2B^5 positive cells were eluted on the column using the AutoMACS® (Miltenyi, as per manufacturer's protocol using “possel-s” program). Eluted cells were further washed twice with OPC growth media. Cell count was performed using Countess III cell counter (ThermoFisher; AMQAX2000) and cells were plated.
(§8) A2B5+ OPCs were plated in poly-d-lysine (PDL) coated T75 flask at a density of ˜3 million cells per flask. […] TrypLE was normalized by adding 10 mL growth media and cells were centrifuged at 1400 rpm for 10 minutes. […] The plates were allowed to sit at room temperature for 15 minutes to ensure proper dispersion of cells in a well. The plates were then transferred to the incubator (37° C.; 5% CO2).
(§9) Cells were then incubated for 72 hours at 37° C., 5% CO2 before immunostaining for MBP marker expression.
(§10) Following 72 hours of treatment, cells were fixed with 4% paraformaldehyde for 15 minutes then washed three times in DPBS. Prior to staining, cells were blocked for 15 minutes in 10% normal goat serum containing 1% BSA and 0.1% Triton X-100 in DPBS. Primary antibody (MBP @ 1:2000; Abcam AB7349) was applied to cells overnight at 4° C. in incubation solution containing 1% normal goat serum, 1% BSA, and 0.1% Triton X-100 in DPBS.
(§11) The number of differentiated MBP+ cells was normalized to the total nuclei count and percent differentiated MBP+ cells were reported.

[3] = tested on: newly generated, GPR17+, oligodendrocytes; assay: in vivo GPR17 assay / in vivo OPC differentiation assay (Examples 242, 245); settings: healthy mice, single oral dose of 0.1, 0.33, 1 or 3.3 mg/kg, versus vehicle, n=8 mice per group
Description: FIGS. 2A and 2B provide representative immunohistochemistry images comparing the in vivo generation of new oligodendrocytes in the brains of mice treated with one of the following: (i) vehicle control (FIG. 2A), or (ii) PDGFRα inhibitor (Compound 6) (PO 5 mg/kg; single dose) (FIG. 2B). The newly generated oligodendrocytes are identified based on upregulation of GPR 17 expression.
Healthy mice received a single oral dose of 0.1 (“2”), 0.33 (“3”), 1 (“4”), or 3.3 (“5”) mg/kg of PDGFRα inhibitor (Compound 26). Control mice received a vehicle control (“1”). The number of newly generated, GPR17+, oligodendrocytes/mm^2 was quantitated via automated image analysis from sections spanning the anterio-posterior axis of the brain. […]
As described elsewhere in the present disclosure, some exemplary PDGFRα inhibitors of the present disclosure are capable of have greater therapeutic effect than inhibitors known in the art, e.g., when an inhibitor known in the art and an exemplary inhibitor provided herein are assayed against a vehicle control. […] For example, in some aspects, a PDGFRα inhibitor of the present disclosure can achieve greater than 2-fold increase in GPR17 expression compared to a vehicle control at a dose of less than 50 mg/kg, as measured using an in vivo GPR17 assay (such as that described in Example 242). […]

[4] = tested on: GPR17+ cells (newly differentiated oligodendrocytes); assay: In vivo OPC differentiation, GPR17+ cells in brain; settings: Mus musculus, po, 24 h, read-out: GPR17 Fold Induction (Over Vehicle)
Description: (§12) The ability of newly constructed compounds to drive OPC differentiation and myelination in vivo was tested. The ability of these compounds to drive OPC differentiation in vivo was tested using GPR17 as an indicator of newly differentiated oligodendrocytes.
(§13) Compounds were delivered PO or IP either QD or BID. Mice were dosed once, transiently, or continuously through the treatment period, which ranged from 1-3 days.
(§14) Mice were euthanized by isoflurane exposure and transcardially perfused with 14 mL of PBS (Sigma Cat #P4417-50TAB) followed by 22 mL of 3.2% paraformaldehyde in PBS. The brains were removed and postfixed for a minimum of 24 hours in 20 mL of 3.2% paraformaldehyde.
(§15) 50-micron floating sections were cut using a Leica VT1200S vibratome. Every 24th section, extending through the antero-posterior extent of the brain, was stained. The selected brain sections were washed three times in PBS for 3 minutes each. The floating sections were incubated in the primary antibodies (see Table 10, below) diluted in blocking solution overnight at room temperature on a shaker. […] The next day, the sections were again washed three times in PBS for 3 minutes each and then incubated in the secondary antibodies diluted in blocking solution for 2 hours at room temperature on a shaker. After incubation, the sections were washed three times in PBS for 3 minutes each and mounted on a slide to be imaged using the Olympus Slide Scanner VS200.
(§16) The images were analyzed using a custom protocol developed using Visiopharm software to count GPR17+ cells. Cells were considered GPR17+ if they contained an Olig2 positive nucleus, and intense GPR 17 staining that filled their processes. Statistical analysis was done using one-way ANOVA with multiple comparison in GraphPad Prism software.

[5] = tested on: Oligodendrocyte progenitor cells (OPCs); assay: In vitro OPC differentiation assay, MBP expression (immunocytochemistry); settings: 72 hours of treatment; fold change over vehicle
Description: as §7, §8, §9, §10, §11

[6] = tested on: Oligodendrocyte progenitor cells (OPCs); assay: In vitro OPC differentiation assay, GPR17 expression (immunocytochemistry); settings: 72 hours, fold change over vehicle
Description: as §1, §2, §3, §4, §5, §6

[7] = tested on: GPR17+ cells (newly differentiated oligodendrocytes); settings: mouse
Description: as §12, §13, §14, §15, §16

Chain of PDGFRα (P16234 24-1089): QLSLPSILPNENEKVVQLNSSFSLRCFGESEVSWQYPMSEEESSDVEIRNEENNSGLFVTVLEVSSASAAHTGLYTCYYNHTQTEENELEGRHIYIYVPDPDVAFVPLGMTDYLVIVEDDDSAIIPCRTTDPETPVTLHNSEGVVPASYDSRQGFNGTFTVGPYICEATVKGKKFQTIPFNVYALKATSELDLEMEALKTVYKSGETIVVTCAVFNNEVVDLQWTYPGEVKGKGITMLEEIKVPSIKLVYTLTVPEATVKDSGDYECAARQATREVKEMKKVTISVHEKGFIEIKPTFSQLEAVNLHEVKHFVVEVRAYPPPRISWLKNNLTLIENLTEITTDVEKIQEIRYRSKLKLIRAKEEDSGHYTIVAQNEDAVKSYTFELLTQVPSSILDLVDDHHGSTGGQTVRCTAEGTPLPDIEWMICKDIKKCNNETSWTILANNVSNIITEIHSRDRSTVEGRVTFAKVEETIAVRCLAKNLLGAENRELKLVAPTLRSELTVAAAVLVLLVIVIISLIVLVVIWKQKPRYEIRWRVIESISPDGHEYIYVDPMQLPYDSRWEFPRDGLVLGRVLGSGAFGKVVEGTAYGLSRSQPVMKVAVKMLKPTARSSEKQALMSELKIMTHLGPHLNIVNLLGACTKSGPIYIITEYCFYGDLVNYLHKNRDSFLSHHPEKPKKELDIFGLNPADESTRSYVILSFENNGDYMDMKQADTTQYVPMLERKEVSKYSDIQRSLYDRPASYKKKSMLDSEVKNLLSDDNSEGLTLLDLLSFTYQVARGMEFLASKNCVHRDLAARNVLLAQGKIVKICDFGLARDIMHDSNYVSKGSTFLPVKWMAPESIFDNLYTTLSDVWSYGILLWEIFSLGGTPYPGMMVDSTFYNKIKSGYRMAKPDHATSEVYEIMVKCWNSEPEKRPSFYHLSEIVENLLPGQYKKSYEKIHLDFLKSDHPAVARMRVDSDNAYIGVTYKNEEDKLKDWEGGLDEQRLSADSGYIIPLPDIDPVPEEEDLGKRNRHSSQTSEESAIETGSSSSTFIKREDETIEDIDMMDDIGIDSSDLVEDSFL

Molecule: 3-[4-(5-benzylpyrimidin-2-yl)piperazin-1-yl]-6-(1-methyl-1H-pyrazol-3-yl)pyrazolo[1,5-a]pyridine [Compound 38]
- IC50 (PDGFRα; read-out: IC50 Values on PDGFRα Kinase Inhibition, IC50): 4.75 µM
- GPR17 Fold Induction (Over Vehicle; 3 μM) [1]: 7.04
- GPR17 Fold Induction (Over Vehicle; 5 μM) [1]: 6.02
- MBP Fold Induction (Over vehicle) [2]: 1.41

Molecule: Cn1cc(-c2ccc3c(N4CCN(c5ncc(C(O)c6ccc(F)cc6)cn5)CC4)cnn3c2)cn1 (centres unmarked) [Compound 26, (4-fluorophenyl)(2-{4-[6-(1-methyl-1H-pyrazol-4-yl)pyrazolo[1,5-a]pyridin-3-yl]piperazin-1-yl}pyrimidin-5-yl)methanol]
- number of newly generated, GPR17+, oligodendrocytes/mm^2 [3]: dose responsive induction
- IC50 Values on PDGFRα Kinase Inhibition, IC50 (nM) (PDGFRα): BLQ
- fold induction at 3.3 mg/kg [4]: 12.1
- MBP Fold Induction (Over vehicle) [5]: 5.23
- GPR17 Fold Induction (Over Vehicle; 3 μM) ([6]; 3 μM (10× concentration, final 0.3 μM)): 13.87
- GPR17 Fold Induction (Over Vehicle; 5 μM) ([6]; 5 μM (10× concentration, final 0.5 μM)): 4.97

Molecule: CN(C)CCC=C1c2ccccc2COc2ccccc21 [Doxepin]
- In vivo GPR17+ cells, GPR17 Fold Induction (Over Vehicle) [7]: 1.36
